1 molecule from patent US6541256B1, “Growth medium for human corneal endothelial cells” (The Schepens Eye Research Institute, Inc., priority 1999, dated 2003) can be followed below.

The test concerns endothelial "ionic pump". As to the kind of experiment: pump function tested by pachymetry of transplanted corneas after exposure to ouabain. More on the design: species or system human. The settings on record: 200 μM ouabain. The procedure:
Corneas from donors (52-80 years old) were obtained from an eye bank. Descemet's membrane was stripped and endothelial cells were removed by mild EDTA treatment. Cells, cultured in the preferred formulation of the culture medium, were identified by RT-PCR of collagen type VIII and keratin-12 and by morphology. Cells (2.5×10^5) were seeded onto denuded Descemet's membrane from a second donor cornea. The cornea was incubated in culture for up to 1 month. Cell-cell contact of transplanted cells was evaluated by ZO-1 staining. Morphology and ultrastructure were examined by transmission electron microscopy. Pump function was tested by pachymetry after exposure to 200 μM ouabain. Cultured cells were identified as corneal endothelium by characteristic mRNA expression and morphology. The success rate of primary cultures, obtained from corneas stored <5 days after death, was about 99%. […] With time, cell-substrate adhesion, cell-cell contact, and lateral interdigitation increased, and the cells rearranged to form a monolayer. When the endothelium is functional, it draws water out of the corneal stroma, resulting in a thin cornea. Ouabain, a cardiac glycoside, inhibits the function of the endothelial “ionic pump”, causing an increase in corneal thickness. […] Referring to FIG. 4, pachymetry of transplanted corneas after ouabain treatment is graphically depicted. […]

With `C[C@@H]1O[C@@H](O[C@H]2C[C@@H](O)[C@]3(CO)[C@H]4[C@H](O)C[C@]5(C)[C@@H](C6=CC(=O)OC6)CC[C@]5(O)[C@@H]4CC[C@]3(O)C2)[C@H](O)[C@H](O)[C@H]1O` [ouabain], the “period over which corneal thickness increased to maximum” value (transplanted corneas after 14 days in organ culture) lay within 2 to 3 h. The “corneal thickness measured by pachymetry (FIG. 4)” value (transplants maintained 14 days in organ culture, 5 corneas) is “increased to a level equal to that of corneas denuded of endothelium”.
